Experimental data as given in US8507562B2, “Synthesis of (1)-beta-elemene, (-)-beta-elemenal, (-)-beta-elemenol, (-)-beta-elemene fluoride and their analogues, intermediates, and composition and uses thereof” (HYWE Pharmaceuticals, Inc., priority 2004, dated 2013).
Values after ≈ are worked out from the molar mass of the structure shown. Where two headings read alike, the source gives them in different places. Values belong to the molecule of their own block, whether it stands above or below them.

How the values were obtained:
H-460 lung cancer = assay: MTT survival assay; format: cell-based, human
Solubility comparison = format: physicochemical
A549 lung cancer = assay: MTT survival assay; conditions: 2 × 10^4 cells/ml
A-172 brain tumor = assay: MTT survival assay; format: cell-based, human; conditions: read-out: Cisplatin IC50; A-172; combination: Elemene at IC20 of the cell line
DU-145 prostate cancer = assay: MTT survival assay; format: cell-based, human; conditions: read-out: Cisplatin IC50, combination: Elemene at IC20 of the cell line
H-69 lung cancer = assay: MTT survival assay; format: cell-based, human; conditions: read-out: Cisplatin IC50, combination: Elemene at IC20 of the cell line
MCAS ovarian cancer = assay: MTT survival assay; format: cell-based, human; conditions: read-out: Cisplatin IC50, combination: Elemene at IC20 of the cell line
U-87 brain tumor = assay: MTT survival assay; format: cell-based, human; conditions: read-out: Cisplatin IC50; U-87; combination: Elemene at IC20 of the cell line
[1] = tested on: CCL-2 (Hela) cervical cancer; assay: MTT survival assay; format: cell-based, human; conditions: read-out: Cisplatin IC50, combination: Elemene at IC20 of the cell line
PC-3 prostate cancer = assay: MTT survival assay; format: cell-based, human; conditions: read-out: Cisplatin IC50, combination: Elemene at IC20 of the cell line
[2] = tested on: late-stage colorectal cancer; conditions: enema twice a day for 10 days; Elemene 200 mg (17 patients), 5-FU 500 mg (14 patients); cited from earlier work
[3] = tested on: Colon Cancer Cells HCT-116; assay: MTS cell viability assay; format: cell-based, human; conditions: combinations with Elemene 160 μg/ml, n = 8
[4] = tested on: Colon Cancer Cells HCT-15; assay: MTS cell viability assay; conditions: combinations with Elemene 160 μg/ml, n = 8
[5] = tested on: Colon Cancer Cells Caco-2; assay: MTS cell viability assay; format: cell-based, human; conditions: combinations with Elemene 100 μg/ml, n = 8
[6] = tested on: Colon Cancer Cells Colo 205; assay: MTS cell viability assay; conditions: Colo 205, drug alone
SKOV3/CIS cells = conditions: cited from earlier work

solubility relative to (−)-beta-elemene (Solubility comparison): more soluble than (−)-beta-elemene
SMILES: C=C[C@]1(C)CC[C@@H](C(=C)CO)C[C@H]1C(=C)C [(−)-beta-elemenol, (−)-Beta-elemenol]
IC50 (H-460 lung cancer; H460, 24 h, 2 × 10^4 cells/ml): 111.0 µg/mL
IC50 (H-460 lung cancer; H460, 48 h, 2 × 10^4 cells/ml): 69.0 µg/mL
IC50 (H-460 lung cancer; H460, 72 h, 2 × 10^4 cells/ml): 74.5 µg/mL
IC50 (A549 lung cancer; A549, 24 h): 74.0 µg/mL (≈ 336 µM)
IC50 (A549 lung cancer; A549, 48 h): 60.1 µg/mL (≈ 273 µM)
IC50 (A549 lung cancer; A549, 72 h): 81.0 µg/mL (≈ 368 µM)

SMILES: N.N.[Cl][Pt][Cl] [Cisplatin]
IC50 (H-460 lung cancer; read-out: Cisplatin IC50, H-460, combination: Elemene at IC20 of the cell line): 80 µM
IC50 (A-172 brain tumor): 24 µM
IC50 (DU-145 prostate cancer): 384 µM
IC50 (H-69 lung cancer): 8 µM
IC50 (MCAS ovarian cancer): 38 µM
IC50 (U-87 brain tumor): 10 µM
IC50 [1]: 27.5 µM
IC50 (PC-3 prostate cancer): 80 µM

IC50 ([3]; HCT-116, 4 hr/24 hr × 2): 42.7 ± 4.78 µg/mL
IC50 ([3]; HCT-116, 4 hr/24 hr × 3): 22.4 ± 8.75 µg/mL
IC50 ([3]; HCT-116, 4 hr/24 hr): 85.1 ± 8.89 µg/mL
IC50 ([3]; HCT-116, 4 hr): 83.3 ± 12.1 µg/mL
IC50 ([3]; HCT-116, 8 hr): 43.1 ± 13.1 µg/mL
IC50 ([3]; HCT-116, 12 hr): 21.7 ± 3.70 µg/mL
IC50 ([3]; HCT-116, 24 hr): 11.8 ± 2.54 µg/mL
IC50 ([3]; HCT-116, 48 hr): 7.4 ± 1.82 µg/mL
IC50 ([3]; HCT-116, 72 hr): 4.5 ± 0.74 µg/mL
IC50 ([4]; HCT-15, 4 hr/24 hr × 2): 40.0 ± 7.01 µg/mL
IC50 ([4]; HCT-15, 4 hr/24 hr × 3): 28.4 ± 7.62 µg/mL
IC50 ([4]; HCT-15, 4 hr/24 hr): 80.0 ± 13.6 µg/mL
IC50 ([4]; HCT-15, 8 hr): 68.1 ± 7.63 µg/mL
IC50 ([4]; HCT-15, 12 hr): 52.1 ± 5.09 µg/mL
IC50 ([4]; HCT-15, 48 hr): 18.4 ± 4.32 µg/mL
IC50 ([4]; HCT-15, 72 hr): 7.95 ± 3.80 µg/mL
IC50 ([5]; Caco-2, 4 hr/24 hr × 2): 17.0 ± 3.29 µg/mL
IC50 ([5]; Caco-2, 4 hr/24 hr × 3): 13.8 ± 2.27 µg/mL
IC50 ([5]; Caco-2, 4 hr/24 hr): 28.8 ± 9.87 µg/mL
IC50 ([5]; Caco-2, 4 hr): 189 ± 27.1 µg/mL
IC50 ([5]; Caco-2, 8 hr): 102 ± 13.0 µg/mL
IC50 ([5]; Caco-2, 12 hr): 42.5 ± 9.84 µg/mL
IC50 ([5]; Caco-2, 24 hr): 23.9 ± 4.37 µg/mL
IC50 ([5]; Caco-2, 48 hr): 18.3 ± 2.83 µg/mL
IC50 ([5]; Caco-2, 72 hr): 12.6 ± 2.07 µg/mL
IC50 ([6]; Time 4 hr, n = 8): 117 ± 9.02 µg/mL (≈ 899 µM)
IC50 ([6]; Time 4 hr/24 hr × 2, n = 8): 26.3 ± 5.34 µg/mL (≈ 202 µM)
IC50 ([6]; Time 4 hr/24 hr × 3, n = 8): 11.6 ± 4.13 µg/mL (≈ 89.2 µM)
IC50 ([6]; Time 4 hr/24 hr, n = 8): 34.6 ± 4.76 µg/mL (≈ 266 µM)
IC50 ([6]; Time 8 hr, n = 8): 91.3 ± 5.62 µg/mL (≈ 702 µM)
IC50 ([6]; Time 12 hr, n = 8): 36.7 ± 4.66 µg/mL (≈ 282 µM)
IC50 ([6]; Time 24 hr, n = 8): 21.1 ± 6.06 µg/mL (≈ 162 µM)
IC50 ([6]; Time 48 hr, n = 8): 13.2 ± 1.44 µg/mL (≈ 101 µM)
IC50 ([6]; Time 72 hr, n = 8): 11.0 ± 1.60 µg/mL (≈ 84.6 µM)
SMILES: O=c1[nH]cc(F)c(=O)[nH]1 [Lr 5-Fu]
CR [2]: CR: 57.1%
PR [2]: PR: 21.4%

SMILES: COc1ccc(CCN(C)CCCC(C#N)(c2ccc(OC)c(OC)c2)C(C)C)cc1OC (stereo not shown) [Verapamil]
enhancement of sensitivity to doxorubicin (SKOV3/CIS cells): 260 fold
